Legend:
Human fibroblast BJ = experiment: Cytotoxicity MTT assay, BJ human fibroblast cells; type: cell-based; details: 48 hrs, ± SD from three independent experiments, NA: did not show activity at 30 µM
Description: (§1) Cytotoxicity against BJ Human fibroblast cells, and anti-cancer activity against PC3, HeLa and MCF-7 cancer cell lines were evaluated by following the procedure as described in the literature (Supplementary Materials).
The Biological Activity Assays Protocols […]
(§2) of positive control – mean of O.D of negative control)*100). […]
(§3) Standard drug used in the MTT assay was doxorubicin. […]
B. Cytotoxicity assay Protocol (BJ Human fibroblast cells) […]
standard MTT (3-[4, 5-dimethylthiazole-2-yl]-2, 5-diphenyl-tetrazolium bromide) colorimetric assay (Price & J. McMillan1, 1990). For this purpose, BJ Human fibroblast cells were cultured in Dulbecco’s Modified Eagle Medium, supplemented with 10% of fetal bovine serum (FBS), 100 IU/ml of penicillin and 100 µg/ml of streptomycin and 2 mM L‐glutamine in 75 cm2 flasks, and kept in 5% CO2 incubator at 37 °C (Mannerström, Toimela, Sarkanen & Heinonen, 2017).
Exponentially growing cells were harvested, counted with haemocytometer and diluted with a particular medium. Cell culture with the concentration of 6x10^4cells/ml was prepared and introduced (100 µL/well) into 96-well plates. After overnight incubation, medium was removed and 200 µL of fresh medium was added with different concentrations of compounds (1 -30µM). After 48 hrs, 200 µL MTT (0.5 mg/ml) was added to each well and incubated further for 3 hrs.
Subsequently, 100µL of DMSO was added to each well. The extent of MTT reduction to formazan within cells was calculated by measuring the absorbance at 550 nm, using a micro plate reader (Spectra Max plus, Molecular Devices, CA, USA). The cytotoxicity was recorded as concentra tion causing 50% growth inhibition (IC50) for BJ cells. The percent inhibition was calculated by using the following […]
Following concentrations were used to calculate (in case) of IC50: […]

[1] = tested on: HeLa cells (Cervical Cancer); experiment: HeLa cells (Cervical Cancer) MTT assay; type: cell-based; details: ± SD from three independent experiments, NA: did not show anticancer activity at 30 µM
Description: (§4) Cytotoxicity against BJ Human fibroblast cells, and anti-cancer activity against PC3, HeLa and MCF-7 cancer cell lines were evaluated by following the procedure as described in the literature (Supplementary Materials). […]
(§5) of positive control – mean of O.D of negative control)*100).
(§6) The results (% inhibition) were processed by using Soft- Max Pro software (Molecular Device, USA).
(§7) Following concentrations were used to calculate (in case) of IC50:
as §3
C. HeLa cells (Cervical Cancer) assay
Cytotoxic activity of compounds was evaluated in 96-well flat-bottomed micro plates by using the standard MTT (3-[4, 5-dimethylthiazole-2-yl]-2, 5-diphenyl-tetrazolium bromide) colorimetric assay40.
For this purpose, HeLa cells (Cervical Cancer) were cultured in Minimum Essential Medium Eagle, supplemented with 5% of fetal bovine serum (FBS) , 100 IU/ml of penicillin and 100 µg/ml of streptomycin in 75 cm2 flasks, and kept in 5% CO2 incubator at 37 °C. Exponentially growing cells were harvested, counted with haemocytometer and diluted with a particular medium. Cell culture with the concentration of 6x10^4 cells/ml was prepared and introduced (100 µL/well) into 96 -well plates. After overnight incubation, medium was removed and 200 µL of fresh medium was added with different concentrations of compounds (1-30µM). After 48 hrs, 200 µL MTT (0.5 mg/ml) was added to each well and incubated further for 4 hrs. Subsequently, 100µL of DMSO was added to each well. The extent of MTT reduction to formazan within cells was calculated by measuring the absorbance at 570 nm, using a micro plate reader (Spectra Max plus, Molecular Devices, CA, USA). The cytotoxicity was recorded as concentration causing 50% growth inhibition (IC 50) for HeLa. The percent inhibition was calculated by using the following formula: […]
The results (% inhibition) were processed by using Soft - Max Pro software (Molecular Device, USA).
(§8) 1. Mosmann T. Rapid colorimetric assay for cellular growth and survival: application to proliferation and cytotoxicity assays. J Immunol Meth 1983, 65, 55–63. […]

[2] = tested on: PC3 cells (Prostate Cancer); experiment: PC3 cells (Prostate Cancer) MTT assay; type: cell-based; details: for IC50: MTT assay, 48 hrs, ± SD from three independent experiments, NA: did not show anticancer activity at 30 µM; for anticancer activity against PC3 prostate cancer cell line (in words): in comparison to doxorubicin
Description: as §1
The Biological Activity Assays Protocols
A. PC3 cells (Prostate Cancer) assay […]
For this purpose, PC3 cells (Prostate Cancer) were cultured in Dulbecco’s Modified Eagle Medium, supplemented with 5% of fetal bovine serum (FBS), 100 IU/ml of penicillin and 100 µg/ml of streptomycin in 75 cm2 flasks, and kept in 5% CO2 incubator at 37 °C. Exponentially growing cells were harvested, counted with haemocytometer and diluted with a particular medium. Cell culture with the concentration of 1x10^5 cells/ml was prepared and introduced (100 µL/well) into 96-well plates. After overnight incubation, medium was removed and 200 µL of fresh medium was added with different concentrations of compounds (1-30µM). After 48 hrs, 200 µL MTT (0.5 mg/ml) was added to each well and incubated further for 4 hrs. Subsequently, 100µL of DMSO was added to each well. The extent of MTT reduction to formazan within cells was calculated by measuring the absorbance at 570 nm, using a micro plate reader (Spectra Max plus, Molecular Devices, CA, USA). The cytotoxicity was recorded as concentration causing 50% growth inhibition (IC50) for PC3 cells. The percent inhibition was calculated by using the following formula: […]
as §5, §6
Standard drug used in the MTT assay was doxorubicin.
as §8

[3] = tested on: MCF-7 breast cancer cell line; experiment: MCF-7 breast cancer cell line MTT assay; type: cell-based; details: Homo sapiens, MCF7, 48 h, MTT assay, 48 hours; ± SD from three independent experiments; NA: did not show anticancer activity at 30 µM
Description: as §4, §2, §7, §3
D. MCF-7 breast cancer cell line assay.
MTT assay is a rapid and quantitative assay capable of measuring the surviving or proliferating cells.
It is based on the reduction of tetrazolium salt MTT (3-(4,5-dimethylthiazol-yl)-2,5-diphenyl tetrazolium bromide) by various dehydrogenase enzymes present in living cells. The tetrazolium ring present in MTT is cleaved in active mitochondria, which results in production of purple colored formazan crystals. These crystals are dissolved in DMSO and optical density of the color produced is taken by spectrophotometer (ELISA reader), with high efficiency and accuracy.
This assay was optimized and slightly modified according to our cell lines, i.e. MCF-7 breast cancer cell […]
1. MCF-7 cell line were cultured in Dulbecco’s modified Eagle medium (containing 10% fetal bovine serum) in 75 cc flasks, and kept in 5% CO 2 incubator at 37 °C.
2. Upon confluency, cells were harvested and plated in 96-well tissue culture treated flat bottom plates (seeding density 8,000 cells/well for MCF-7) in 100 µL medium.
3. Next day, compounds were added in triplicate at 50 µM concentration, and incubated for 48 hours. For natural extracts, the concentration was 50 µg/mL.
4. After 48 hrs incubation, the compounds were removed and 200 µL MTT at 0.5 mg/mL was added to each well and incubated at 37 °C for 3 hours.
5. Formazan crystals, formed by reduction of MTT were dissolved in 100 µL DMSO and absorbance was taken at 570 nm using micro-plate reader (Spectra Max plus, Molecular […]
6. The percent inhibition or decrease in viable cells was calculated by following formula:
% Inhibition = 100 - (mean of O.D. of test compound - mean of O.D. of negative control) / (mean of O.D. of positive control - mean of O.D. of negative control) x 100) […]
Twenty (20) mM stock concentration of compounds were diluted to working concentration of 50 µM, and then further serial dilutions were made in order to get less than 50% inhibition.
The IC50 was then calculated by using EZ-fit5 software.

| melting point | IC50 ([1]; Homo sapiens, HeLa, 48 h) | IC50 ([2]; Homo sapiens, PC-3, 48 h) | IC50 [2] | IC50 [3] | IC50 ([1]; 48 hrs) | IC50 ([1]; 48 hrs, listed as doxorubicin) | IC50 ([2]; listed as doxorubicin) | SMILES | IC50 (Human fibroblast BJ) | anticancer activity against PC3 prostate cancer cell line (in words) [2] |
| --- | --- | --- | --- | --- | --- | --- | --- | --- | --- | --- |
| 123 to 124 °C | 13.6 ± 0.4 µM | 7.8 ± 0.4 µM | – | – | – | – | – | O=C(CC(c1cc2ccccc2o1)c1c[nH]c2cc(F)ccc12)c1ccc(Br)cc1 (stereo not shown) [Compound 3e, 3-(Benzofuran-2-yl)-1-(4-bromophenyl)-3-(6-fluoro-1H-indol-3-yl)propan-1-one] | > 30 µM | – |
| 112 to 113 °C | 14.7 ± 1.1 µM | 22 ± 1.3 µM | 20 ± 1.3 µM | – | – | – | – | O=C(CC(c1cc2ccccc2o1)c1c[nH]c2cc(F)ccc12)c1ccc(Cl)cc1 (stereo not shown) [Compound 3g, 3-(Benzofuran-2-yl)-1-(4-chlorophenyl)-3-(6-fluoro-1H-indol-3-yl)propan-1-one] | > 30 µM | – |
| 139 to 140 °C | 15.2 ± 0.6 µM | – | – | – | – | – | – | O=C(CC(c1cc2ccccc2o1)c1c[nH]c2cc(F)ccc12)c1ccccc1[N+](=O)[O-] (stereo not shown) [Compound 3i, 3-(Benzofuran-2-yl)-3-(6-fluoro-1H-indol-3-yl)-1-(2-nitrophenyl)propan-1-one] | – | complete loss of anticancer activity |
| – | 12.7 ± 0.1 µM | 27.6 ± 0.1 µM | – | – | – | – | – | O=C(CC(c1cc2ccccc2s1)c1c[nH]c2ccccc12)c1ccc(F)cc1 (stereo not shown) [Compound 3p, 3-(Benzo[b]thiophen-2-yl)-1-(4-fluorophenyl)-3-(1H-indol-3-yl)propan-1-one] | > 50 µM | – |
| 154 to 155 °C | 14.9 ± 0.6 µM | – | – | – | – | – | – | O=C(CC(c1cc2ccccc2o1)c1c[nH]c2ccccc12)c1ccccc1[N+](=O)[O-] (stereo not shown) [Compound 3k, 3-(Benzofuran-2-yl)-3-(1H-indol-3-yl)-1-(2-nitrophenyl)propan-1-one] | – | – |
| 108 to 109 °C | 12.6 ± 0.4 µM | 26.3 ± 0.8 µM | – | – | – | – | – | O=C(CC(c1cc2ccccc2o1)c1c[nH]c2ccccc12)c1ccc(Br)cc1 (stereo not shown) [Compound 3d, 3-(Benzofuran-2-yl)-1-(4-bromophenyl)-3-(1H-indol-3-yl)propan-1-one] | > 30 µM | – |
| 165 to 166 °C | 18.8 ± 0.2 µM | 18 ± 0.3 µM | – | – | – | – | – | O=C(CC(c1cc2ccccc2s1)c1c[nH]c2ccccc12)c1ccc(C(F)(F)F)cc1 (stereo not shown) [Compound 3q, 3-(Benzo[b]thiophen-2-yl)-3-(1H-indol-3-yl)-1-(4-(trifluoromethyl)phenyl)propan-1-one] | > 50 µM | – |
| 67 to 68 °C | 12.4 ± 0.2 µM | 20.4 ± 0.4 µM | – | – | – | – | – | COc1ccccc1C(=O)CC(c1cc2ccccc2o1)c1c[nH]c2ccccc12 (stereo not shown) [Compound 3r, 3-(Benzofuran-2-yl)-3-(1H-indol-3-yl)-1-(2-methoxyphenyl)propan-1-one] | – | inactive |
| 159 to 160 °C | 12.4 ± 0.2 µM | 20.4 ± 0.4 µM | – | – | – | – | – | O=C(CC(c1cc2ccccc2s1)c1c[nH]c2ccccc12)c1ccccc1 (stereo not shown) [Compound 3n, 3-(Benzo[b]thiophen-2-yl)-3-(1H-indol-3-yl)-1-phenylpropan-1-one] | > 50 µM | – |
| 162 to 163 °C | 11.1 ± 0.6 µM | 16.3 ± 1.6 µM | – | – | – | – | – | COc1cccc(C(=O)CC(c2cc3ccccc3o2)c2c[nH]c3ccccc23)c1 (stereo not shown) [Compound 3l, 3-(Benzofuran-2-yl)-3-(1H-indol-3-yl)-1-(3-methoxyphenyl)propan-1-one] | > 30 µM | – |
| – | – | – | 1.9 ± 0.4 µM | 0.79 ± 0.05 µM | 0.9 ± 0.14 µM | 1.9 ± 0.4 µM | 0.9 ± 0.14 µM | COc1cccc2c1C(=O)c1c(O)c3c(c(O)c1C2=O)C[C@@](O)(C(=O)CO)C[C@@H]3O[C@H]1C[C@H](N)[C@H](O)[C@H](C)O1 [Doxorubicin, doxorubicin, reference compound] | – | – |
| 150 to 151 °C | 13.8 ± 0.3 µM | 29.7 ± 0.1 µM | – | – | – | – | – | O=C(CC(c1cc2ccccc2s1)c1c[nH]c2ccccc12)c1ccc(Cl)cc1 (stereo not shown) [Compound 3o, 3-(Benzo[b]thiophen-2-yl)-1-(4-chlorophenyl)-3-(1H-indol-3-yl)propan-1-one] | > 50 µM | – |
| 173 to 174 °C | 17.3 ± 0.7 µM | 16 ± 0.1 µM | – | – | – | – | – | O=C(CC(c1cc2ccccc2o1)c1c[nH]c2ccc(Br)cc12)c1ccccc1[N+](=O)[O-] (stereo not shown) [Compound 3j, 3-(Benzofuran-2-yl)-3-(5-bromo-1H-indol-3-yl)-1-(2-nitrophenyl)propan-1-one] | – | – |
| 121 to 122 °C | – | 29.7 ± 0.4 µM | – | – | – | – | – | O=C(CC(c1cc2ccccc2s1)c1c[nH]c2ccccc12)c1ccc(Br)cc1 (stereo not shown) [Compound 3h, 3-(Benzo[b]thiophen-2-yl)-1-(4-bromophenyl)-3-(1H-indol-3-yl)propan-1-one] | > 30 µM | – |

Source: paper PMC8070033, “Bimetallic Iron–Palladium Catalyst System as a Lewis-Acid for the Synthesis of Novel Pharmacophores Based Indole Scaffold as Anticancer Agents” (Molecules, 2021)
